Literature values as cited in publication PMC4198332 (Chembiochem : a European journal of chemical biology, 2014).

Tests used:
[1] = tested on: Methicillin-resistant S. aureus (MRSA) (ATCC 33591); conditions: included for comparison
[2] = tested on: Methicillin-resistant S. epidermidis (MRSE) (RP62A); conditions: included for comparison
[3] = tested on: Vancomycin-resistant E. faecalis (ATCC 700802); conditions: included for comparison
[4] = tested on: P. aeruginosa (ATCC 27853); conditions: included for comparison
E. coli (ATCC 25922) = conditions: included for comparison
[5] = tested on: human red blood cells (hRBCs)

For Pexiganan, the “MIC MRSA (+)” value [1] is given as 16 µg/mL, the “MIC MRSE (+)” value [2] is given as 8 µg/mL and the “MIC E. faecalis (+)” value [3] is given as 32 µg/mL. For the same substance, the “MIC P. Aeruginosa (−)” value [4] was 16 µg/mL, the “MIC E. coli (−)” value (E. coli (ATCC 25922)) was 8 µg/mL and the “Hemolysis HC50” value [5] was “--/120 μg/mL”.
